In US20200131669A1, “CYCLIC PEPTIDE COMPOUND HAVING HIGH MEMBRANE PERMEABILITY, AND LIBRARY CONTAINING SAME” (Chugai Seiyaku Kabushiki Kaisha, priority 2017, published 2020):
Starred links: 1 amine or outer side, 2 acyl side, 3 side chain; linkers in the order of their positions; H or OH if unused. Positions of bridges follow the written chain, without caps; N, C: chain ends. Non-standard residues stand in square brackets, D forms with d. Residues, ends and D or L forms follow the SMILES beside them. ξ: configuration not given here. *: point of attachment. NMeAbu(3,3-F2-piperidino) = CN[C@@H](CCN1CCCC(F)(F)C1)C(=O)O; NMeAla(4-thiazolyl) = CN[C@@H](Cc1cscn1)C(=O)O; Phe(4-CHF2) = N[C@@H](Cc1ccc(C(F)F)cc1)C(=O)O; NMePhe(3-Cl) = CN[C@@H](Cc1cccc(Cl)c1)C(=O)O; X12 = CCCC[C@@H](O)[C@H](N[*:1])C(=O)[*:2]; hPhe(4-Cl) = N[C@@H](CCc1ccc(Cl)cc1)C(=O)O; X8 = O=C(CN(CCN1CCC(F)(F)CC1)[*:1])[*:2]; hhPhe = N[C@@H](CCCc1ccccc1)C(=O)O; X3 = O=C([C@H](CCCCO)N[*:1])[*:2]; NMeF = CN[C@@H](Cc1ccccc1)C(=O)O; NMeGABA = CN(CCCC(=O)[*:2])[*:1]; NMeI = CC[C@H](C)[C@H](NC)C(=O)O; CH2CONHtBu = CC(C)(C)NC(=O)C*; NMeL = CN[C@@H](CC(C)C)C(=O)O; dNMeL = CN[C@H](CC(C)C)C(=O)O; Propyl(2R-OH) = C[C@@H](O)C*; NMeV = CN[C@H](C(=O)O)C(C)C; NMeAbu = CC[C@H](NC)C(=O)O; NPentylGly = CCCCCNCC(=O)O; hSer = N[C@@H](CCO)C(=O)O; NMeA = CN[C@@H](C)C(=O)O; Piperidide = C1CCN(*)CC1; CH2CMe2OH = CC(C)(O)C*; NBuGly = CCCCNCC(=O)O; NPrGly = CCCNCC(=O)O; X11 = FC(F)C(F)(F)C*; Bn = c1ccc(C*)cc1; ξS = NC(CO)C(=O)O; Sar = CNCC(=O)O; tBu = CC(C)(C)*

Each compound was assayed on Caco-2 cells (assay: Caco-2 membrane permeability, improved method as used in the following Examples (96-well, 20 to 24 h preincubation)). Details: Papp, Caco-2 membrane permeability, improved method.
Format: in vitro ADME
Outline: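 Caco-2 monolayers were grown three weeks and preincubated 20–24 h at 37 °C with compound in DMEM+FaSSIF (1% DMSO) apically. The assay then used compound in FaSSIF/HBSS (1% DMSO, pH 6.0) apically and HBSS with 4% BSA (pH 7.4) basally. Basal samples were taken at 180 min for LC/MS, and Papp (cm/sec) was calculated.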

SMILES | Caco-2 [cm/s]
CC(C)C[C@H]1C(=O)N[C@@H](CCCCO)C(=O)N(C)[C@@H](CC(C)C)C(=O)N(C)[C@@H](CC(C)C)C(=O)N[C@H](C(=O)N2CCCCC2)CC(=O)N(C)CCCC(=O)N(C)[C@@H](C(C)C)C(=O)N[C@@H](C(C)C)C(=O)N(C)[C@@H](Cc2ccccc2)C(=O)N(C)[C@@H](Cc2ccccc2)C(=O)N[C@@H](COC(C)(C)C)C(=O)N1C [pd447] ([NMeGABA][NMeV]V[NMeF][NMeF]S(tBu)[NMeL][X3][NMeL][NMeL]D-Piperidide; lactam N-11) | 1.1e-06
CCOCC[C@@H]1NC(=O)[C@H](CC(C)C)N(C)C(=O)CN(C)C(=O)[C@H]([C@@H](C)O)NC(=O)[C@H](CC(C)C)N(C)C(=O)[C@H](CC(C)C)NC(=O)[C@H](Cc2ccccc2)N(C)C(=O)[C@@H](CC(C)C)NC(=O)C[C@@H](C(=O)N2CCCCC2)NC(=O)[C@H](CC(C)C)N(C)C(=O)[C@H](Cc2ccccc2)N(C)C1=O [pd444] ([dL][NMeF]L[NMeL]T[Sar][NMeL][hSer](Et)[NMeF][NMeL]D-Piperidide; lactam N-11) | 1.1e-06

Same assay, conditions: human, Caco-2, 180 min

SMILES | Caco-2 [cm/s]
CCCCN1CC(=O)N(C)[C@@H](CC(C)C)C(=O)N[C@H](C(=O)N2CCCCC2)CC(=O)N(C)[C@@H](CC(C)C)C(=O)N[C@@H](CC(C)C)C(=O)N(C)[C@@H](CC(C)C)C(=O)N(C)[C@@H](Cc2cscn2)C(=O)N[C@@H](CC(C)C)C(=O)N(C)[C@@H](Cc2ccccc2)C(=O)N(C)[C@@H]([C@@H](C)CC)C(=O)N[C@@H](CCC(=O)NC)C1=O [pd465] ([NMeL]L[NMeL][NMeAla(4-thiazolyl)]L[NMeF][NMeI]E(NHMe)[NBuGly][NMeL]D-Piperidide; lactam N-11) | 1.1e-06
CC(C)C[C@H]1C(=O)N[C@@H](COC(C)(C)C)C(=O)N(C)[C@@H](Cc2ccccc2)C(=O)N(C)[C@@H](C)C(=O)N[C@H](C(=O)N2CCCCC2)CC(=O)N[C@H](C(C)C)C(=O)N(C)[C@@H](Cc2ccccc2)C(=O)N[C@@H](CCCc2ccccc2)C(=O)N(C)[C@@H](CC(C)C)C(=O)N[C@@H]([C@@H](C)O)C(=O)N(C)CC(=O)N1C [pd363] ([dV][NMeF][hhPhe][NMeL]T[Sar][NMeL]S(tBu)[NMeF][NMeA]D-Piperidide; lactam N-11) | 1.1e-06
CCCN1CC(=O)N(C)[C@@H](Cc2ccccc2)C(=O)N[C@@H]([C@@H](C)CC)C(=O)N(C)[C@@H](CC(C)C)C(=O)N[C@@H]([C@@H](C)O)C(=O)N(CCC)CC(=O)N(C)[C@@H](Cc2ccccc2)C(=O)N(C)[C@@H](CC(C)C)C(=O)N[C@@H](COCC(C)(C)O)C(=O)N(C)[C@@H](C(C)C)C(=O)N[C@H](C(=O)N2CCCCC2)CC1=O [pd431] ([NPrGly][NMeF]I[NMeL]T[NPrGly][NMeF][NMeL]S(CH2CMe2OH)[NMeV]D-Piperidide; lactam N-11) | 1.1e-06
CCCC[C@@H](O)[C@@H]1NC(=O)[C@H](CC(C)C)N(C)C(=O)[C@H](CC(C)C)NC(=O)[C@H](Cc2ccccc2)N(C)C(=O)[C@@H](C)NC(=O)C[C@@H](C(=O)N2CCCCC2)NC(=O)[C@H](C)N(C)C(=O)[C@H](Cc2ccccc2)N(C)C(=O)[C@H](COC(C)(C)C)NC(=O)[C@H](CC(C)C)N(C)C(=O)CN(C)C1=O [pd466] ([dA][NMeF]L[NMeL][X12][Sar][NMeL]S(tBu)[NMeF][NMeA]D-Piperidide; lactam N-11) | 1.1e-06
CC[C@H](C)[C@H]1C(=O)N[C@@H]([C@@H](C)O)C(=O)N(C)CC(=O)N(C)[C@@H](CC(C)C)C(=O)N[C@H](C(=O)N2CCCCC2)CC(=O)N(C)[C@@H](C)C(=O)N[C@@H](CC(C)C)C(=O)N(C)[C@@H](CC(C)C)C(=O)N(C)[C@@H](Cc2ccccc2)C(=O)N[C@@H](COCC(F)(F)C(F)F)C(=O)N(C)[C@@H](Cc2ccccc2)C(=O)N1C [pd348] ([NMeA]L[NMeL][NMeF]S(X11)[NMeF][NMeI]T[Sar][NMeL]D-Piperidide; lactam N-11) | 1.1e-06
CC(C)C[C@H]1C(=O)N[C@H](C(=O)N2CCCCC2)CC(=O)N(C)CC(=O)N(C)[C@@H](Cc2ccccc2)C(=O)N[C@@H](C(C)C)C(=O)N(C)[C@@H](CC(C)C)C(=O)N[C@@H]([C@@H](C)O)C(=O)N(CCN2CCC(F)(F)CC2)CC(=O)N(C)[C@@H](Cc2ccccc2)C(=O)N(C)[C@@H](CC(C)C)C(=O)N[C@@H](COC(C)(C)C)C(=O)N1C [pd455] ([Sar][NMeF]V[NMeL]T[X8][NMeF][NMeL]S(tBu)[NMeL]D-Piperidide; lactam N-11) | 1.1e-06
CCCCN1CC(=O)N(C)[C@@H](CC(C)C)C(=O)N[C@H](C(=O)N2CCCCC2)CC(=O)N(C)[C@@H](C)C(=O)N[C@@H](COC[C@@H](C)O)C(=O)N(C)[C@H](CC(C)C)C(=O)N(C)[C@@H](Cc2cccc(Cl)c2)C(=O)N[C@@H](CC(C)C)C(=O)N(C)[C@@H](Cc2ccccc2)C(=O)N(C)[C@@H]([C@@H](C)CC)C(=O)N[C@@H]([C@@H](C)O)C1=O [pd489] ([NMeA]S(Propyl(2R-OH))[dNMeL][NMePhe(3-Cl)]L[NMeF][NMeI]T[NBuGly][NMeL]D-Piperidide; lactam N-11) | 1.1e-06
CC(C)C[C@H]1C(=O)N[C@H](C(=O)N2CCCCC2)CC(=O)N(C)[C@@H](C)C(=O)N[C@@H](CCc2ccc(Cl)cc2)C(=O)N(C)[C@@H](CC(C)C)C(=O)N(C)[C@@H](CC(C)C)C(=O)N[C@@H](C)C(=O)N(C)[C@@H](Cc2ccccc2)C(=O)N(C)[C@@H](C(C)C)C(=O)N[C@@H]([C@@H](C)O)C(=O)N(C)CC(=O)N1C [pd361] ([NMeA][hPhe(4-Cl)][NMeL][NMeL]A[NMeF][NMeV]T[Sar][NMeL]D-Piperidide; lactam N-11) | 1.1e-06
CC[C@H](C)[C@@H]1NC(=O)[C@H](Cc2ccccc2)N(C)C(=O)CN(C)C(=O)C[C@@H](C(=O)N2CCCCC2)NC(=O)[C@H]([C@@H](C)CC)N(C)C(=O)C(COCc2ccccc2)NC(=O)[C@H](CC(C)C)N(C)C(=O)[C@H](Cc2ccccc2)N(C)C(=O)CN(C)C(=O)[C@H]([C@@H](C)O)NC(=O)[C@H](CC(C)C)N(C)C1=O (stereo partly drawn) [pd178] ([Sar][NMeF]I[NMeL]T[Sar][NMeF][NMeL][ξS](Bn)[NMeI]D-Piperidide; lactam N-11) | 2.5e-06
CCCN1CC(=O)N(C)[C@@H](CC(C)C)C(=O)N[C@@H](CC(C)C)C(=O)N(C)[C@@H](Cc2ccccc2)C(=O)N(C)[C@@H](C)C(=O)N[C@H](C(=O)N2CCCCC2)CC(=O)N[C@H](CC(C)C)C(=O)N(C)[C@@H](Cc2ccccc2)C(=O)N[C@@H](COCC(=O)NC(C)(C)C)C(=O)N(C)[C@@H](CC(C)C)C(=O)N[C@@H]([C@@H](C)O)C1=O [pd442] ([dL][NMeF]S(CH2CONHtBu)[NMeL]T[NPrGly][NMeL]L[NMeF][NMeA]D-Piperidide; lactam N-11) | 1.1e-06
CC(C)C[C@H]1C(=O)N[C@@H](COC(C)(C)C)C(=O)N(C)[C@@H](Cc2ccccc2)C(=O)N(C)[C@@H](CC(C)C)C(=O)N[C@H](C(=O)N2CCCCC2)CC(=O)N[C@H](C(C)C)C(=O)N(C)[C@@H](C(C)C)C(=O)N[C@@H](Cc2ccc(C(F)F)cc2)C(=O)N(C)[C@@H](CC(C)C)C(=O)N[C@@H]([C@@H](C)O)C(=O)N(C)CC(=O)N1C [pd472] ([dV][NMeV][Phe(4-CHF2)][NMeL]T[Sar][NMeL]S(tBu)[NMeF][NMeL]D-Piperidide; lactam N-11) | 1.1e-06
CC(C)C[C@@H]1NC(=O)[C@H](CCN2CCCC(F)(F)C2)N(C)C(=O)[C@@H](C(C)C)NC(=O)C[C@@H](C(=O)N2CCCCC2)NC(=O)[C@H](C)N(C)C(=O)[C@H](Cc2cccc(Cl)c2)N(C)C(=O)[C@H](CC(C)C)NC(=O)[C@H](CC(C)C)N(C)C(=O)CN(C)C(=O)[C@H]([C@@H](C)O)NC(=O)[C@H](Cc2ccccc2)N(C)C1=O [pd389] ([dV][NMeAbu(3,3-F2-piperidino)]L[NMeF]T[Sar][NMeL]L[NMePhe(3-Cl)][NMeA]D-Piperidide; lactam N-11) | 1.1e-06
CC(C)C[C@H]1C(=O)N[C@@H](COC(C)(C)C)C(=O)N(C)[C@@H](Cc2ccccc2)C(=O)N(C)[C@@H](C(C)C)C(=O)N[C@H](C(=O)N2CCCCC2)CC(=O)N[C@H](C)C(=O)N(C)[C@@H](Cc2ccccc2)C(=O)NC(COc2cccc(Cl)c2)C(=O)N(C)[C@@H](C(C)C)C(=O)N[C@@H]([C@@H](C)O)C(=O)N(C)CC(=O)N1C (some centres unmarked) [pd185] | 2.2e-06
CCCCCN1CC(=O)N[C@@H](COC(C)(C)C)C(=O)N(C)[C@@H](Cc2ccccc2)C(=O)N(C)[C@@H](CC(C)C)C(=O)N[C@H](C(=O)N2CCCCC2)CC(=O)N[C@H](CC(C)C)C(=O)N(C)[C@@H](Cc2ccccc2)C(=O)N[C@@H]([C@@H](C)CC)C(=O)N(C)[C@@H](CC)C(=O)N[C@@H]([C@@H](C)O)C(=O)N(C)CC1=O [pd406] ([dL][NMeF]I[NMeAbu]T[Sar][NPentylGly]S(tBu)[NMeF][NMeL]D-Piperidide; lactam N-11) | 1.1e-06
CC[C@H](C)[C@H]1C(=O)N[C@@H]([C@@H](C)O)C(=O)N(C)CC(=O)N(C)[C@@H](CC(C)C)C(=O)N[C@H](C(=O)N2CCCCC2)CC(=O)N(C)[C@@H](C(C)C)C(=O)N[C@@H](COC[C@@H](C)O)C(=O)N(C)[C@H](CC(C)C)C(=O)N(C)[C@@H](Cc2cccc(Cl)c2)C(=O)N[C@@H](CC(C)C)C(=O)N(C)[C@@H](Cc2ccccc2)C(=O)N1C [pd491] ([NMeV]S(Propyl(2R-OH))[dNMeL][NMePhe(3-Cl)]L[NMeF][NMeI]T[Sar][NMeL]D-Piperidide; lactam N-11) | 1.1e-06
